Data reported in patent US20020137929A1, “1 - (3-heterocyclylphenyl) isothiourea, -isourea, -guanidine and -amidine herbicidal agents” (Intellectual Property Department, BASF Aktiengesellschaft, priority 1998, published 2002).

What was measured:
[1] = tested on: AMBEL (Ragweed, Common); assay: Postemergence herbicidal evaluation; format: in vivo, Ambrosia artemisifolia; details: postemergence
Outline: (§1)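 ~2-wk seedlings; postemergence spray, 40 psi; vehicle 1:1 acetone:water + 0.5% Tween 20; rate ≈0.0156–0.500 kg/ha; greenhouse hold; scored 4–5 wk after treatment, 0–9 scale vs control; repeat tests averaged.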

[2] = tested on: CASOB (Sicklepod); assay: Postemergence herbicidal evaluation; format: in vivo, Cassia obtusifolia; details: postemergence
Outline: as §1

[3] = tested on: CHEAL (Lambsquarters, Common); assay: Postemergence herbicidal evaluation; format: in vivo, Chenopodium album; details: postemergence
Outline: as §1

[4] = tested on: IPOHE (Morningglory, Ivyleaf); assay: Postemergence herbicidal evaluation; format: in vivo, Ipomoea hederacea; details: postemergence
Outline: as §1

[5] = tested on: ECHCG (Barnyardgrass); assay: Postemergence herbicidal evaluation; format: in vivo, Echinochloa crus-galli; details: postemergence
Outline: as §1

[6] = tested on: GLXMAW (Soybean, Williams); assay: Postemergence herbicidal evaluation; format: in vivo, Glycine max, (L.) Merr. cv Williams; details: postemergence
Outline: as §1

[7] = tested on: TRZAWR (Wheat, Winter, cv Riband); assay: Postemergence herbicidal evaluation; format: in vivo, Triticum aestivum; details: postemergence
Outline: as §1

[8] = tested on: ABUTH (Velvetleaf); assay: Preemergence herbicidal evaluation; format: in vivo, Abutilon theophrasti; details: rated 4-5 weeks after treatment
Outline: (§2)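 Herbicidal effect scored visually, 0-9, at 4 to 5 weeks against a control; compound applied preemergence by aqueous acetone spray to seeded soil at about 0.0156 to 0.500 kg/ha.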

[9] = tested on: AMBEL (Ragweed, Common); assay: Preemergence herbicidal evaluation; format: in vivo, Ambrosia artemisifolia; details: rated 4-5 weeks after treatment
Outline: as §2

[10] = tested on: CASOB (Sicklepod); assay: Preemergence herbicidal evaluation; format: in vivo, Cassia obtusifolia; details: rated 4-5 weeks after treatment
Outline: as §2

[11] = tested on: CHEAL (Lambsquarters, Common); assay: Preemergence herbicidal evaluation; format: in vivo, Chenopodium album; details: rated 4-5 weeks after treatment
Outline: as §2

[12] = tested on: IPOHE (Morningglory, Ivyleaf); assay: Preemergence herbicidal evaluation; format: in vivo, Ipomoea hederacea; details: rated 4-5 weeks after treatment
Outline: as §2

[13] = tested on: GLXMAW (Soybean, Williams); assay: Preemergence herbicidal evaluation; format: in vivo, Glycine max, (L.) Merr. cv Williams; details: rated 4-5 weeks after treatment
Outline: as §2

[14] = tested on: ORYSAT (Rice, Tebonnet); assay: Preemergence herbicidal evaluation; format: in vivo, Oryza sativa, (L.) Tebonnet; details: rated 4-5 weeks after treatment
Outline: as §2

[15] = tested on: SAGPY (Arrowhead (Pygmaea)); assay: Preemergence weed control under flooded paddy conditions; format: in vivo, Sagittaria pygmaea; details: rated 3-4 weeks after treatment
Outline: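 Visual injury scored 0-9 against control three to four weeks post-treatment, greenhouse-grown. Application: acetone/water (50/50) solutions dosed directly into flood water (1.5-3 cm over silt loam, planted top 0.5 cm), roughly 0.0313 to 0.500 kg/ha active ingredient.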

For `CCOC(=O)[C@H](Cc1ccccc1)N1C(=O)CSC1=Nc1cc(-n2c(=O)cc(C(F)(F)F)n(C)c2=O)c(F)cc1Cl` [Compound 80, Ethyl α-benzyl-2-{{2-chloro-5-[3,6-dihydro-3-methyl-2,6-dioxo-4-(trifluoromethyl)-1(2H)-pyrimidinyl]-4-fluorophenyl}imino}-4-oxo-3-thiazolidineacetate, L-], which AMBEL herbicidal rating ([1]; rate 0.0158 kg/ha) is on record?
The AMBEL herbicidal rating was 9.0.

And the AMBEL herbicidal rating ([1]; rate 0.0315 kg/ha)?
Its AMBEL herbicidal rating is 9.0.

What about the AMBEL herbicidal rating ([1]; rate 0.0630 kg/ha) of the same molecule?
The AMBEL herbicidal rating was 7.0.

And the CASOB herbicidal rating ([2]; rate 0.0158 kg/ha)?
The CASOB herbicidal rating was 1.0.

What about the CASOB herbicidal rating ([2]; rate 0.0315 kg/ha) of the same molecule?
The CASOB herbicidal rating was 5.0.

And the CASOB herbicidal rating ([2]; rate 0.0630 kg/ha)?
The CASOB herbicidal rating was 9.0.

And the CHEAL herbicidal rating ([3]; rate 0.0158 kg/ha)?
The CHEAL herbicidal rating was 9.0.

What about the CHEAL herbicidal rating ([3]; rate 0.0315 kg/ha) of the same molecule?
Its CHEAL herbicidal rating is 9.0.

What about the CHEAL herbicidal rating ([3]; rate 0.0630 kg/ha) of the same molecule?
The CHEAL herbicidal rating was 9.0.

And the IPOHE herbicidal rating ([4]; rate 0.0158 kg/ha)?
The IPOHE herbicidal rating was 9.0.

What about the IPOHE herbicidal rating ([4]; rate 0.0315 kg/ha) of the same molecule?
The IPOHE herbicidal rating was 9.0.

And the IPOHE herbicidal rating ([4]; rate 0.0630 kg/ha)?
Its IPOHE herbicidal rating is 9.0.

And the ECHCG herbicidal rating ([5]; rate 0.0158 kg/ha)?
The ECHCG herbicidal rating was 1.0.

What about the ECHCG herbicidal rating ([5]; rate 0.0315 kg/ha) of the same molecule?
Its ECHCG herbicidal rating is 2.0.

What about the ECHCG herbicidal rating ([5]; rate 0.0630 kg/ha) of the same molecule?
Its ECHCG herbicidal rating is 3.0.

What about the GLXMAW herbicidal rating ([6]; rate 0.0158 kg/ha) of the same molecule?
Its GLXMAW herbicidal rating is 4.5.

And the GLXMAW herbicidal rating ([6]; rate 0.0315 kg/ha)?
Its GLXMAW herbicidal rating is 5.5.

What about the GLXMAW herbicidal rating ([6]; rate 0.0630 kg/ha) of the same molecule?
The GLXMAW herbicidal rating was 6.5.

And the TRZAWR herbicidal rating ([7]; rate 0.0158 kg/ha)?
Its TRZAWR herbicidal rating is 3.5.

What about the TRZAWR herbicidal rating ([7]; rate 0.0315 kg/ha) of the same molecule?
The TRZAWR herbicidal rating was 3.5.

And the TRZAWR herbicidal rating ([7]; rate 0.0630 kg/ha)?
Its TRZAWR herbicidal rating is 4.0.

What about the “Preemergence herbicidal rating ABUTH” value ([8]; rate 0.0156 kg/ha) of the same molecule?
Its value is 0.0.

What about the “Preemergence herbicidal rating ABUTH” value ([8]; rate 0.0313 kg/ha) of the same molecule?
The value was 1.0.

What about the “Preemergence herbicidal rating ABUTH” value ([8]; rate 0.0625 kg/ha) of the same molecule?
Its value is 9.0.

What about the “Preemergence herbicidal rating ABUTH” value ([8]; rate 0.1250 kg/ha) of the same molecule?
Its value is 9.0.

And the “Preemergence herbicidal rating ABUTH” value ([8]; rate 0.2500 kg/ha)?
Its value is 9.0.

And the “Preemergence herbicidal rating AMBEL” value ([9]; rate 0.0313 kg/ha)?
The value was 0.0.

What about the “Preemergence herbicidal rating AMBEL” value ([9]; rate 0.0625 kg/ha) of the same molecule?
Its value is 2.0.

What about the “Preemergence herbicidal rating AMBEL” value ([9]; rate 0.1250 kg/ha) of the same molecule?
The value was 9.0.

And the “Preemergence herbicidal rating AMBEL” value ([9]; rate 0.2500 kg/ha)?
The value was 7.0.

And the “Preemergence herbicidal rating CASOB” value ([10]; rate 0.0156 kg/ha)?
The value was 1.0.

What about the “Preemergence herbicidal rating CASOB” value ([10]; rate 0.0313 kg/ha) of the same molecule?
The value was 0.0.

And the “Preemergence herbicidal rating CASOB” value ([10]; rate 0.0625 kg/ha)?
Its value is 0.0.

What about the “Preemergence herbicidal rating CASOB” value ([10]; rate 0.1250 kg/ha) of the same molecule?
Its value is 9.0.

And the “Preemergence herbicidal rating CASOB” value ([10]; rate 0.2500 kg/ha)?
The value was 9.0.

And the “Preemergence herbicidal rating CHEAL” value ([11]; rate 0.0156 kg/ha)?
Its value is 7.0.

And the “Preemergence herbicidal rating CHEAL” value ([11]; rate 0.0313 kg/ha)?
The value was 9.0.

And the “Preemergence herbicidal rating CHEAL” value ([11]; rate 0.0625 kg/ha)?
Its value is 9.0.

And the “Preemergence herbicidal rating CHEAL” value ([11]; rate 0.1250 kg/ha)?
Its value is 9.0.

What about the “Preemergence herbicidal rating CHEAL” value ([11]; rate 0.2500 kg/ha) of the same molecule?
Its value is 9.0.

And the “Preemergence herbicidal rating IPOHE” value ([12]; rate 0.0156 kg/ha)?
The value was 0.0.

And the “Preemergence herbicidal rating IPOHE” value ([12]; rate 0.0313 kg/ha)?
Its value is 0.0.

And the “Preemergence herbicidal rating IPOHE” value ([12]; rate 0.0625 kg/ha)?
The value was 0.0.

And the “Preemergence herbicidal rating IPOHE” value ([12]; rate 0.1250 kg/ha)?
Its value is 4.0.

What about the “Preemergence herbicidal rating IPOHE” value ([12]; rate 0.2500 kg/ha) of the same molecule?
Its value is 9.0.

And the “Preemergence herbicidal rating GLXMAW” value ([13]; rate 0.0156 kg/ha)?
Its value is 0.0.

What about the “Preemergence herbicidal rating GLXMAW” value ([13]; rate 0.0313 kg/ha) of the same molecule?
The value was 0.0.

What about the “Preemergence herbicidal rating GLXMAW” value ([13]; rate 0.0625 kg/ha) of the same molecule?
Its value is 1.0.

What about the “Preemergence herbicidal rating GLXMAW” value ([13]; rate 0.1250 kg/ha) of the same molecule?
The value was 1.0.

And the “Preemergence herbicidal rating GLXMAW” value ([13]; rate 0.2500 kg/ha)?
Its value is 1.0.

And the “Preemergence herbicidal rating ORYSAT” value ([14]; rate 0.0156 kg/ha)?
Its value is 0.0.

And the “Preemergence herbicidal rating ORYSAT” value ([14]; rate 0.0313 kg/ha)?
The value was 0.0.

What about the “Preemergence herbicidal rating ORYSAT” value ([14]; rate 0.0625 kg/ha) of the same molecule?
Its value is 0.0.

What about the “Preemergence herbicidal rating ORYSAT” value ([14]; rate 0.1250 kg/ha) of the same molecule?
The value was 1.0.

What about the “Preemergence herbicidal rating ORYSAT” value ([14]; rate 0.2500 kg/ha) of the same molecule?
The value was 1.0.

And the “SAGPY herbicidal effect rating” value ([15]; 0.0313 kg/ha)?
Its value is 0.0.

What about the “SAGPY herbicidal effect rating” value ([15]; 0.0625 kg/ha) of the same molecule?
Its value is 0.0.

What about the “SAGPY herbicidal effect rating” value ([15]; 0.1250 kg/ha) of the same molecule?
Its value is 0.0.

And the “SAGPY herbicidal effect rating” value ([15]; 0.2500 kg/ha)?
The value was 0.0.
